This note sets out measurements from US20170291890A1 (Epizyme, Inc., priority 2014, published 2017).

Molecules are shown by their SMILES. Like-named read-outs stand apart in the source and are kept apart here.

One experiment addresses T1, KDM5A (Homo sapiens, UniProt P29375).
T1 construct: C-terminal FLAG-tagged KDM5A^1-1090 was purchased from BPS Biosciences; FLAG (C); purchased BPS Biosciences
T1 sequence (P29375 1-1090): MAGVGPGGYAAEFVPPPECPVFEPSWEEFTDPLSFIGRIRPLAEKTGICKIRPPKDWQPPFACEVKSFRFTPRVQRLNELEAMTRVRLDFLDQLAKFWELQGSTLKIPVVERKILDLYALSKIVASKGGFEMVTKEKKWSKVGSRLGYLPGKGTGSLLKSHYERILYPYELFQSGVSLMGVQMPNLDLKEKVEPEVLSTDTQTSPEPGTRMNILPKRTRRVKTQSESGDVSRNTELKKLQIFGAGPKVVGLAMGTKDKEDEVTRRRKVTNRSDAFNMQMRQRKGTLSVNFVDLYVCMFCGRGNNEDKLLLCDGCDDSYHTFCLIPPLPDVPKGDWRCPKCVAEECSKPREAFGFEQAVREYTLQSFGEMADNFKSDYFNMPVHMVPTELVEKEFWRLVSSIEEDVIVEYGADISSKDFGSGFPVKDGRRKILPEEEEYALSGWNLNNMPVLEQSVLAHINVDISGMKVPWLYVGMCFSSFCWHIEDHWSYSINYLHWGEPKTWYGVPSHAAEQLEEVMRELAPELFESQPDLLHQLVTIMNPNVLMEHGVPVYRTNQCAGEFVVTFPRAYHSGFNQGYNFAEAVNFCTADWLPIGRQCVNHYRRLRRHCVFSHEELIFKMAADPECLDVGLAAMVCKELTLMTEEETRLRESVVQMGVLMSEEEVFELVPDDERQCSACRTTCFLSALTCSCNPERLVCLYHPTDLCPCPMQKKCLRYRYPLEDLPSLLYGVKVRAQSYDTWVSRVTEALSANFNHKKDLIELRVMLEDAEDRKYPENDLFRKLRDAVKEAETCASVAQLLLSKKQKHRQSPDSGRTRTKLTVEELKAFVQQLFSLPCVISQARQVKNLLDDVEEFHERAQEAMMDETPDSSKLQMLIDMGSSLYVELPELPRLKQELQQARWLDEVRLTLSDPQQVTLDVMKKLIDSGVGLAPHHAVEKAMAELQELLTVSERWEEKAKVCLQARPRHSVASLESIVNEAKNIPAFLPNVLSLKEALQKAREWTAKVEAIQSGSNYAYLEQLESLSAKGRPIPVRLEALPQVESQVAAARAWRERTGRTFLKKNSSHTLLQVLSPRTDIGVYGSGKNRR
Description: KDM5A Assay (SAMDI mass spectrometry demethylase assay). Format: biochemical. The note with it: C-terminal FLAG-tagged KDM5A 1-1090, read-out: 5A IC50. The protocol: (§1) C-terminal FLAG-tagged KDM5A^1-1090 was purchased from BPS Biosciences. Peptides were synthesized by BioPeptide and all other reagents were purchased from Sigma-Aldrich at the highest level of purity possible. Assays were performed in a 50 μL volume in 384-well V-bottom polypropylene microplates (Greiner) at 25° C. Optimized 1× assay buffer was 50 mM HEPES (pH=8.0), 100 μM sodium ascorbate, 20 mM NaCl, 10 μM ammonium iron sulfate, 1 mM tris(2-carboxyethyl)phosphine (TCEP), 0.002% Tween-20, and 0.005% BSG. For compound screening, 35 μL of KDM5A^1-109° (final concentration, f.c.=20 nM) was added using a Multidrop Combi and preincubated with 1 μL of test compound (f.c.=10 μM) for 30 minutes and subsequently 15 μL of peptide with the following sequence NH2-ART[Kme-3]QTARKSTGGKA[K-Ahx-Biot]-amide (f.c.=250 nM) and 2-oxoglutarate (f.c.=15 μM) was added by Multidrop Combi to begin the reaction. Reactions proceeded for 150 minutes and were stopped by the addition of 5 μL of formic acid (f.c.=0.5%) using a Multidrop Combi and then analyzed by SAMDI Tech Inc.
(§2) SAMDI Tech analyzed all reactions using self-assembled monoloayer desorption/ionization technology as previously described (Gerard-Levin Z A, Scholle M D, Eisenberg A H, et al.: High-throughput screening of small molecule libraries using SAMDI mass spectrometry. ACS Comb Sci 2011; 13:347-350). Briefly, a 2 μL sample of the stopped demethylase reactions were transferred to a SAMDI array coated with 384 biotin-neutravidin spots using a 384-channel pipet station. The SAMDI arrays were incubated for 1 h in a humidified chamber, followed by washing of the surface with deionized ultra-filtered water (DIUF) and drying under nitrogen. A matrix of 30 mg/ml 2′,4′,6′-Trihydroxyacetophenone monohydrate (THAP) in acetone was applied using a TPP Mosquito 1.2 μL tip by dispensing 50 nL on each of the 384 spots on the array. SAMDI-MS was run using acquisition method ReflectorPositiveUTX. The % conversion of substrate to product was calculated using the AUC of the substrate and product peptide peaks.
(§3) An IC50 value was determined by contacting various concentrations of a test compound with one of the KDM4A, KDM4C or KDMSC enzyme constructs and plotting a dose-response curve which associates the amount of inhibition of the enzyme relative to the concentration of the test compound. From the curve, the IC50 value (which represents the concentration of the test compound necessary to inhibit maximal enzymatic activity by 50%) was determined. Additionally, the slope of the linear range of the plotted curve, which indicates the speed with which the curve rises between the minimum and maximum, was calculated.

For another experiment, the target named is T2, KDM4C (Homo sapiens, UniProt Q9H3R0).
T2 construct: N-terminal GST-tagged KDM4C^2-372 was purchased from BPS Biosciences; GST (N); purchased BPS Biosciences
T2 sequence (Q9H3R0 2-372): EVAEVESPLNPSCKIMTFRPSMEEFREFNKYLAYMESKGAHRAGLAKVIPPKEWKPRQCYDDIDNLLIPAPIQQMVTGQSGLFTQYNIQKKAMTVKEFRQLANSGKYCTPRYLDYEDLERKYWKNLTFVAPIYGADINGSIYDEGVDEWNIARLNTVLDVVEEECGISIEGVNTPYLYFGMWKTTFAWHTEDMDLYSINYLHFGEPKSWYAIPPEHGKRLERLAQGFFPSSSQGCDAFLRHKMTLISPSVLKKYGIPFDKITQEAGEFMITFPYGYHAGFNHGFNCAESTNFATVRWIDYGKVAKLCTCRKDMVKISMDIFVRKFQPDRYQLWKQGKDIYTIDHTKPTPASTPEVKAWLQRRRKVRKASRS
Description: KDM4C Assay (SAMDI mass spectrometry demethylase assay). Format: biochemical. The note with it: N-terminal GST-tagged KDM4C 2-372, read-out: 4C IC50. As for the experimental part: as §1, with “N-terminal GST-tagged KDM4C^2-372” for “C-terminal FLAG-tagged KDM5A^1-1090”, “KDM4C^2-372” for “KDM5A^1-109°”, “f.c.=5” for “f.c.=20”, “NH2-ARTKQTAR(Kme3)STGGKAPRKQLA(K-Ahx-Biotin)-amide (f.c.=500” for “NH2-ART[Kme-3]QTARKSTGGKA[K-Ahx-Biot]-amide (f.c.=250”
as §2, §3

As for `Cc1nn([C@@H]2CNC[C@@H]2C)cc1Nc1cnccc1C(=O)O` (single isomer, unassigned) [Compound 109], the IC50 – broadly, the point on the concentration scale where inhibition reaches its midpoint – on KDM5A (class symbols) was in the range of 100 to 1000 nM; on KDM4C (class symbols), 1000 to 10000 nM.
For the compound `Cc1nn([C@H]2CNC[C@H]2C)cc1Nc1cnccc1C(=O)O` (single isomer, unassigned) [Compound 110], the results for the IC50 at KDM5A (class symbols) and on KDM4C (class symbols) were 1 to 100 nM and 100 to 1000 nM, respectively.
For the compound `Cc1c(Nc2cnccc2C(=O)O)cnn1C1CCCNCC1` (single isomer, unassigned) [Compound 113], the figures for the IC50 at KDM5A (class symbols) and on KDM4C (class symbols) were 1000 to 10000 nM and 100 to 1000 nM, respectively.
On the same counts, the results for `Cc1c(Nc2cnccc2C(=O)O)cnn1C1CCCN(C2CCC2)CC1` (single isomer, unassigned) [Compound 117] are 1000 to 10000 nM and 100 to 1000 nM.
In the case of `Cc1nn(C2CCCN(C3CCC3)CC2)cc1Nc1cnccc1C(=O)O` (single isomer, unassigned) [Compound 118], the results for the concentration for half-maximal inhibition (IC50) at KDM5A (class symbols) and at KDM4C (class symbols) were 100 to 1000 nM and 1000 to 10000 nM, respectively.
Regarding `Cc1c(Nc2cnccc2C(=O)O)cnn1C1CCCN(C2CCC2)CC1` (single isomer, unassigned) [Compound 119], the concentration for half-maximal inhibition (IC50) at KDM5A (class symbols) lay in the range of 1000 to 10000 nM; at KDM4C (class symbols), 100 to 1000 nM.
For the compound `Cc1nn(C2CCCN(C3CCC3)CC2)cc1Nc1cnccc1C(=O)O` (single isomer, unassigned) [Compound 120], the IC50 at KDM5A (class symbols) and at KDM4C (class symbols) was 100 to 1000 nM each time.
In the case of `Cc1nn(C2CCN(c3ccccc3)CC2)cc1Nc1cnccc1C(=O)O` [Compound 105, 3-(3-methyl-1-(1-phenylpiperidin-4-yl)-1H-pyrazol-4-ylamino) isonicotinic acid], the IC50 on KDM5A (class symbols) lay within 1 to 100 nM; on KDM4C (class symbols), 100 to 1000 nM.
On the same counts, the results for `Cc1c(Nc2cnccc2C(=O)O)cnn1C1CCN(c2ccccc2)CC1` [Compound 106, 3-(5-methyl-1-(1-phenylpiperidin-4-yl)-1H-pyrazol-4-ylamino)isonicotinic acid] are 1000 to 10000 nM and 1 to 100 nM.
With `Cc1c(Nc2cnccc2C(=O)O)cnn1CCN(C)C` [Compound 108], the 50% inhibitory concentration (IC50) at KDM5A (class symbols) and at KDM4C (class symbols) was 1000 to 10000 nM in each case.
For the compound `Cc1nn([C@H]2CCN(C)C2)cc1Nc1cnccc1C(=O)NCCO` [Compound 121, (S)—N-(2-hydroxyethyl)-3-((3-methyl-1-(1-methylpyrrolidin-3-yl)-1H-pyrazol-4-yl)amino)isonicotinamide], the IC50 on KDM5A (numeric bound) and on KDM4C (numeric bound) was over 100000 nM each time.
As to `Cc1nn([C@@H]2CCN(C)C2)cc1Nc1cnccc1C(=O)NCCO` [Compound 122, (R)—N-(2-hydroxy-ethyl)-3-((3-methyl-1-(1-methylpyrrolidin-3-yl)-1H-pyrazol-4-yl)amino)isonicotin-amide], the IC50 on KDM5A (class symbols) is 10000 to 100000 nM; at KDM4C (numeric bound) it was over 100000 nM.
For `CCc1c(Nc2cnccc2C(=O)O)cnn1C1CCN(C)CC1` [Compound 123, 3-(5-ethyl-1-(1-methylpiperidin-4-yl)-1H-pyrazol-4-ylamino) isonicotinic acid], the results for the IC50 at KDM5A (class symbols) and at KDM4C (class symbols) were 1000 to 10000 nM and 100 to 1000 nM, respectively.
Take `CN1CCC(n2ncc(Nc3cnccc3C(=O)O)c2-c2ccccc2)C1` (stereo not shown) [Compound 124]: the IC50 on KDM5A (class symbols) and on KDM4C (class symbols) was 1000 to 10000 nM each time.
For `O=C(O)c1ccncc1Nc1cnn(C2CCN(Cc3ccccc3)C2)c1-c1ccccc1` (stereo not shown) [Compound 125, 3-(1-(1-benzylpyrrolidin-3-yl)-5-phenyl-1H-pyrazol-4-ylamino) isonicotinic acid], the IC50 at KDM5A (class symbols) and on KDM4C (class symbols) was 100 to 1000 nM each time.
Turning to `CN1CCC(n2cc(Nc3cnccc3C(=O)O)c(-c3ccccc3)n2)CC1` [Compound 127, 3-(1-(1-methylpiperidin-4-yl)-3-phenyl-1H-pyrazol-4-ylamino)isonicotinic acid], the IC50 on KDM5A (class symbols) and on KDM4C (class symbols) was 100 to 1000 nM throughout.
In the case of `Cc1cn(Cc2ccccc2)nc1Nc1cnccc1C(=O)O` [Compound 128, 3-(1-benzyl-4-methyl-1H-pyrazol-3-ylamino)isonicotinic acid], the IC50 on KDM5A (class symbols) and on KDM4C (class symbols) was 100 to 1000 nM throughout.
Turning to `O=C(O)c1ccncc1Nc1nn(C2CCNCC2)cc1-c1ccccc1` [Compound 129, 3-(4-phenyl-1-(piperidin-4-yl)-1H-pyrazol-3-ylamino) isonicotinic acid], the IC50 lay within 1 to 100 nM on KDM5A (class symbols) and 100 to 1000 nM at KDM4C (class symbols).
Consider `CN1CCC(n2cc(-c3ccccc3)c(Nc3cnccc3C(=O)O)n2)CC1` [Compound 130, 3-(1-(1-methylpiperidin-4-yl)-4-phenyl-1H-pyrazol-3-ylamino) isonicotinic acid], for which the IC50 fell in the range of 1 to 100 nM on KDM5A (class symbols) and 100 to 1000 nM at KDM4C (class symbols).
The like results for `O=C(O)c1ccncc1Nc1c(-c2ccccc2)cnn1[C@H]1CNc2ccccc2C1` [Compound 137, (R)-3-(4-phenyl-1-(1,2,3,4-tetrahydroquinolin-3-yl)-1H-pyrazol-5-ylamino)isonicotinic acid] were, in that order, 10000 to 100000 nM and 10000 to 100000 nM.
